Results published in US12636266B2 (Rivo Bio, Inc., priority 2024, dated 2026).

Tests used:
[1] = Z to E isomer conversion by NMR; assay type: physicochemical; settings: shortly following synthesis
Description: Compound 5, described here with structure shown in Scheme 1, is the stable E isomer. However, the initial reaction in Scheme 1 with compound 5-1 produces both the E and Z isomers of 5-2b. Column chromatography was used to separate the isomers and each isomer was then carried through the next three reactions separately, to produce both compound 5 and its Z isomer.

[2] = target: T1, human recombinant 5-HT2A receptor (Homo sapiens, UniProt P28223); assay: IPOne HTRF agonist assay, percent activity at 5-HT2A; assay type: cell-based; settings: relative to a-Me-5-HT, CHO-K1 cells; for activation at 0.3 µM / activation at 30 µM: 1 h, read-out: Percent (a-Me-5-HT) Activity at 5-HT2A (30 uM/0.3 μM)
T1 construct: host or cells: CHO-K1
T1 sequence (P28223 whole entry): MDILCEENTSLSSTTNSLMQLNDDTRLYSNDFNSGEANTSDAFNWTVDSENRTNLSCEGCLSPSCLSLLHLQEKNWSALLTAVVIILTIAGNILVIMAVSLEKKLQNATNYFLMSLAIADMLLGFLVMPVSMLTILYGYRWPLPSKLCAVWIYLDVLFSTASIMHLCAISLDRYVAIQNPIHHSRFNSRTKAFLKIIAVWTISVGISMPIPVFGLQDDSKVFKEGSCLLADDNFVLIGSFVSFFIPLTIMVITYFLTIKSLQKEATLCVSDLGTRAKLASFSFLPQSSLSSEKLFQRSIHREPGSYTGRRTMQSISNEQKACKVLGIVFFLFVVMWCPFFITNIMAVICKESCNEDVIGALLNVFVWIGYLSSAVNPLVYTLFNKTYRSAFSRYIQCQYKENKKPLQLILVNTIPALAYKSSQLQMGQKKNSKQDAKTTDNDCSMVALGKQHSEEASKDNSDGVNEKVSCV
Description: Example 16: Percent (α-Me-5-HT) Activity at 5-HT2A Assay
Compounds were tested in the IPOne HTRF (Homogeneous Time Resolved Fluorescence) assay at Epics Therapeutics S.A. (Belgium). Briefly, CHO-K1 cells expressing human recombinant 5-HT2A receptor grown to mid-log phase in culture media without antibiotics were detached with PBS-EDTA, centrifuged and resuspended in medium without antibiotics buffer. 20,000 cells were distributed in a 96 well plate and incubated overnight at 37° C. with 5% CO2. For agonist testing (384-well, suspension), 5 μl of cells were dispensed on 5 μl of test compound or reference agonist in each well and the plate was incubated for 60 min. at 37° C. with 5% CO2. IP1-D2 reagent and anti-IP1 cryptate reagents were then dispensed in the wells and IP1 concentrations were then measured following the manufacturer recommendations.

[3] = target: T1, human recombinant 5-HT2A receptor; assay: as above; assay type: cell-based; settings: relative to 5-HT

SMILES | Percent (a-Me-5-HT) Activity at 5-HT2A (30 uM/0.3 μM) ([2]; 0.3 μM (second value)) | Percent (a-Me-5-HT) Activity at 5-HT2A (30 uM/0.3 μM) ([2]; 30 uM (first value)) | further results
COc1ccc2c(c1)/C(=C\C=O)CC2 (single isomer, unassigned) [Z isomer of compound 5-4] |  |  | Z isomer converting to the E isomer (by NMR) [1]: 40%
COc1ccc2c(c1)/C(=C/CN(C)C)CC2 [Compound 5, N,N-Dimethyl[(E)-2-(6-methoxy-1-indanylidene)ethyl]amine] | 74% | 96% | Percent (5-HT) Activity at 5-HT2A (30 μM) [3]: 92%
COc1ccc2c(c1)/C(=C(\F)CN(C)C)CC2 [Compound 10, N,N-Dimethyl[(Z)-2-(6-methoxy-1-indanylidene)-2-fluoroethyl]amine] | 4% | 1% | 
COc1ccc2c(c1)/C(=C/CN1CCC1)CC2 [Compound 12, 1-[(E)-2-(6-Methoxy-1-indanylidene)ethyl]azetidine] | 27% | 47% | 
CN(C)C/C=C1\CCc2ccc3c(c21)CCO3 [Compound 14, N,N-Dimethyl[(E)-2-(3-oxa-1,2,6,7-tetrahydro-as-indacen-8-ylidene)ethyl]amine] | 6% | 33% | 
CN(C)C/C=C1\C=Cc2ccccc21 [Compound 22, N,N-Dimethyl[(E)-2-(1-indenylidene)ethyl]amine] | 5% | 49% | 
COc1ccc2c(c1)/C(=C(/F)CN(C)C)CC2 [Compound 23, N,N-Dimethyl[(E)-2-(6-methoxy-1-indanylidene)-2-fluoroethyl]amine] |  |  | activation at 0.3 µM ([2]; 0.3 μM (second value)): -1%; activation at 30 µM ([2]; 30 uM (first value)): -2%
C(/CN1CCC1)=C1/CCc2ccc3c(c21)CCO3 [Compound 24, 1-[(E)-2-(3-Oxa-1,2,6,7-tetrahydro-as-indacen-8-ylidene)ethyl]azetidine] | 17% | 38% | 
COc1ccc2c(c1)CC/C2=C\CN1CCC1 [Compound 25, 1-[(E)-2-(5-Methoxy-1-indanylidene)ethyl]azetidine] |  |  | activation at 0.3 µM ([2]; 0.3 μM (second value)): 0%; activation at 30 µM ([2]; 30 uM (first value)): -3%
COc1ccc2c(c1)CC/C2=C\CN(C)C [Compound 26, N,N-Dimethyl[(E)-2-(5-methoxy-1-indanylidene)ethyl]amine] |  |  | activation at 0.3 µM ([2]; 0.3 μM (second value)): 10%; activation at 30 µM ([2]; 30 uM (first value)): -1%
FC(F)(F)Oc1ccc2c(c1)/C(=C/CN1CCC1)CC2 [Compound 27, 1-[(E)-2-(6-Trifluoromethoxy-1-indanylidene)ethyl]azetidine] | 5% | 8% | 
C(/CN1CCC1)=C1/CCc2cccnc21 [Compound 28, 1-[(E)-2-(4-Aza-3-indanylidene)ethyl]azetidine] | 5/5% | 5/5% | 
COC1C/C(=C\CN)c2ccccc21 (stereo not shown) [Compound 29] | 6% | 53% | 
COC1C/C(=C\CN2CCC2)c2ccccc21 (stereo not shown) [Compound 30, 1-[(E)-2-(3-Methoxy-1-indanylidene)ethyl]azetidine] | 3% | 24% | 
CN(C)C/C=C1\CCc2sccc21 [Compound 31, N,N-Dimethyl[(E)-2-{2-thiabicyclo[3.3.0]octa-1(5),3-dien-6-ylidene}ethyl]amine] | 3% | 2% | 
CCC(N)/C=C1\CCc2ccccc21 (stereo not shown) [Compound 101, 1-[(E)-(1-Indanylidene)methyl]propylamine] | 15% | 20% | 
OCc1ccc2c(c1)/C(=C/CN1CCC1)CC2 [Compound 103, {(E)-3-[2-(1-Azetidinyl)ethylidene]-5-indanyl}methanol] | 9% | 94% | 
